In patent US20030100550A1, “Carboxamide diazepin derivatives, preparation method, use as medicines, pharmaceutical compositions and use thereof” (priority 2002, published 2003):

Tests used:
Cathepsin K = molecular target: T1, Cathepsin K (Homo sapiens, UniProt P43235); assay: Study of Cathepsin K inhibition (fluorescence, Z-Val-arg-AMC); assay type: biochemical; settings: for IC50: substrate Z-Val-arg-AMC 20 μM, enzyme 5 ng/ml, 2H at ambient temperature, read-out: Cathepsin K IC50
T1 sequence (P43235 115-329): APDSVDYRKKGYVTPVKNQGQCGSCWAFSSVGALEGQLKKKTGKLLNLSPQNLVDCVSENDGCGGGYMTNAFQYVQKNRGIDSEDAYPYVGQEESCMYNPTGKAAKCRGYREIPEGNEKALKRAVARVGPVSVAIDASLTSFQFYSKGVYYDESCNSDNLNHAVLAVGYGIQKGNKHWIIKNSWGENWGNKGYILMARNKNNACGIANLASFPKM
In short: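 Recombinant cathepsin K (5 ng/ml final) with 20 μM Z-Val-Arg-AMC in 100 mM sodium acetate, 5 mM EDTA, DTT, pH 5.5; compounds screened at 10 μM in duplicate, 2 h at ambient temperature, fluorescence ex 390/em 460 nm. % inhibition vs plate 0/100% controls; actives retested 50–0.5 μM for IC50.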

Papain = molecular target: T2, Papain (Carica papaya, UniProt P00784); assay: Study of Papain inhibition (fluorescence); assay type: biochemical; settings: enzyme 20 ng/ml, 30 minutes at ambient temperature
T2 construct: purchased Sigma
T2 sequence (P00784 134-345): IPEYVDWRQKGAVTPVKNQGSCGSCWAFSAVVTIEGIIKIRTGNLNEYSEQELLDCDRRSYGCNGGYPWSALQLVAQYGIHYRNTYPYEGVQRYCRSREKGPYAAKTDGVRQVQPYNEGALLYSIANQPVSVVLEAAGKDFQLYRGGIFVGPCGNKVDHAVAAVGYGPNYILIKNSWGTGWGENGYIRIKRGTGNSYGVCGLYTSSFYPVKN
Description: The products to be tested (10 mM) are diluted to […] in DMSO and distributed into Nunc polystyrene 96 well plates at a rate of 2 μl per well. Column 12 of the plate is reserved for the controls and therefore receives […] of DMSO (without products) per well. The plates are stored at −80° C. and thawed on the day of the experiment.
The products are diluted to 50 μM by adding 38 μl of reaction buffer: sodium acetate 100 mM, EDTA 5 mM, DTT […] pH 5.5. The addition as well as all the operations by pipette are carried out with a CybiWell 96 tip pipette. After mixing the solutions, each product is transferred into 2 wells (duplicates) of a Greiner black 384 well plate at a rate of 10 μl per well. Two 96-well plates can therefore be tested in a 384-well plate.
A solution of substrate at 50 μM, Z-Val-arg-AMC (Calbiochem), is prepared in the reaction buffer. The substrate, is then distributed into all the wells of the 384-well plate (20 μl per well).
A solution of Cathepsin K at 12.5 ng/ml is prepared in the reaction buffer and distributed into all the wells of the 384-well plate (20 μl per well) except for the 16 wells serving as 100% inhibition controls (column 23 and 24, lines I to P) which receive 20 μl of enzyme-free buffer.
The plates are then incubated 2H at ambient temperature, then read on Fluoroskan (Labsystems): excitation 390 nm; emission 460 nm
The final concentrations of each of the reagents are: products 10 μM, substrate 20 μM, enzyme 5 ng/ml.
The % inhibition for each of the products is calculated by using points at 0 and 100% inhibition of each plate as references. The products presenting a significant inhibition are then retested on a range of concentrations from 50 to 0.5 μM to determine an IC50.
Study of Papain Inhibition:
Protocol identical to that of Cathepsin K except for:
Papain (Sigma), solution at 50 ng/ml, final concentration 20 ng/ml
Incubation for 30 minutes at ambient temperature

Row | Compound | IC50 (Cathepsin K) [µM] | IC50 (Papain) [µM] | Cathepsin K, percentage in parentheses beside IC50 value (% inhibition) (Cathepsin K; printed beside 20 μM, meaning not explained) [%]
1 | C=CCOC(=O)CC[C@H](NC(=O)[C@@H]1CCCN2C(=O)CC[C@H](NC(=O)Nc3ccc(Oc4ccccc4)cc3)C(=O)N12)C(=O)CSc1nnnn1-c1ccccc1 [Example 128, (2-propenyl)(4S)6-[(1-phenyl-1H-tetrazol-5-yl)thio]-4-[[[(1S,9S)-9-[[[(4-phenoxyphenyl)amino]carbonyl]amino]-octahydro-6,10-dioxo-6H-pyridazino[1,2-a][1,2]diazepine-1-yl]carbonyl]amino]-5-oxo-hexanoate] | 20 | 6 | 
2 | C=CCOC(=O)CC[C@H](NC(=O)[C@@H]1CCCN2C(=O)CC[C@H](NC(=O)Nc3ccc(Oc4ccccc4)cc3)C(=O)N12)C(=O)CSCc1ccc(OC)cc1 [Example 130, (2-propenyl)(4S)6-[[(4-methoxyphenyl)methyl]thio]-4-[[[(1S,9S)-9-[[[(4-phenoxyphenyl)amino]carbonyl]amino]-octahydro-6,10-dioxo-6H-pyridazino[1,2-a][1,2]diazepine-1-yl]carbonyl]amino]-5-oxo-hexanoate] | 20 | 6 | 
3 | C=CCOC(=O)CC[C@H](NC(=O)[C@@H]1CCCN2C(=O)CC[C@H](NC(=O)Nc3ccc(Oc4ccccc4)cc3)C(=O)N12)C(=O)COC(=O)c1ccncc1 [Example 131, (2-propenyl)(4S)6-[[(4-pyridinyl)carbonyl]oxy]-4-[[[(1S,9S)-9-[[[(4-phenoxyphenyl)amino]carbonyl]amino]-octahydro-6,10-dioxo-6H-pyridazino[1,2-a][1,2]diazepine-1-yl]carbonyl]amino]-5-oxo-hexanoate] | 7 | 9 | 
4 | C=CCOC(=O)CC[C@H](NC(=O)[C@@H]1CCCN2C(=O)CC[C@H](NC(=O)Nc3ccc(Oc4ccccc4)cc3)C(=O)N12)C(=O)COC(=O)Cc1ccsc1 [Example 134, (2-propenyl)(4S)6-[1-oxo-2-(thien-3-yl)ethoxy]-4-[[[(1S,9S)-9-[[[(4-phenoxyphenyl)amino]carbonyl]amino]-octahydro-6,10-dioxo-6H-pyridazino[1,2-a][1,2]diazepine-1-yl]carbonyl]amino]-5-oxo-hexanoate] | 20 | 7 | 
5 | [N-]=[N+]=CC(=O)[C@H](Cc1ccccc1)NC(=O)[C@@H]1CCCN2C(=O)CC[C@H](NS(=O)(=O)c3ccc(-c4ccon4)s3)C(=O)N12 [Example 166, 9-[(9S)-[[5-(isoxazol-3-yl)-2-thienyl]sulphonyl]amino]-N-((2S)-4-diazo-1-phenyl-3-oxo-2-butyl)-octahydro-6,10-dioxo-6H-(1S)-pyridazino[1,2-a][1,2]diazepine-1-carboxamide] | 20 | 2 | 
6 | O=C(Nc1ccc(Oc2ccccc2)cc1)N[C@H]1CCC(=O)N2CCC[C@@H](C(=O)N[C@@H](Cc3ccccc3)C(=O)CSc3nnnn3-c3ccccc3)N2C1=O [Example 211, 9-[(9S)-[[(4-phenoxyphenyl)amino]carbonyl]amino]-N-[(2S)-1-phenyl-4-[(1-phenyl-1H-tetrazol-5-yl)thio]-3-oxo-2-butyl]-octahydro-6,10-dioxo-6H-(1S)-pyridazino[1,2-a][1,2]diazepine-1-carboxamide] | 20 | 6 | 
7 | COC(=O)CCCC(=O)OCC(=O)[C@H](Cc1ccccc1)NC(=O)[C@@H]1CCCN2C(=O)CC[C@H](NC(=O)Nc3ccc(Oc4ccccc4)cc3)C(=O)N12 [Example 217] | 20 | 7 | 30
8 | O=C(NCCc1cccs1)N[C@H]1CCC(=O)N2CCC[C@@H](C(=O)N[C@@H](Cc3ccccc3)C(=O)CSc3nnnn3-c3ccccc3)N2C1=O [Example 220, 9-[(9S)-[[[2-(thien-2-yl)-ethyl]amino]carbonyl]amino]-N-[(2S)-1-phenyl-4-[(1-phenyl-1H-tetrazol-5-yl)thio]-3-oxo-2-butyl]-octahydro-6,10-dioxo-6H-(1S)-pyridazino [1,2-a][1,2]diazepine-1-carboxamide] | 20 | 6 | 
9 | O=C(NCCc1cccs1)N[C@H]1CCC(=O)N2CCC[C@@H](C(=O)N[C@@H](Cc3ccccc3)C(=O)CSc3nc4ccccc4s3)N2C1=O [Example 221, 9-[(9S)-[[[2-(thien-2-yl)-ethyl]amino]carbonyl]amino]-N-[(2S)-1-phenyl-4-[(2-benzothiazolyl)thio]-3-oxo-2-butyl]-octahydro-6,10-dioxo-6H-(1S)-pyridazino[1,2-a][1,2]diazepine-1-carboxamide] | 20 | 7 | 
10 | CC(C)[C@H](NC(=O)[C@@H]1CCCN2C(=O)CC[C@H](NC(=O)c3ccco3)C(=O)N12)C(=O)CSc1nc2ccccc2s1 [Example 374, 9-[(9S)-[(2-furanyl)carbonyl]amino]-N-[(3S)-1-[(benzothiazol-2-yl)thio]-4-methyl-2-oxo-3-pentyl]-octahydro-6,10-dioxo-6H-(1S)-pyridazino[1,2-a][1,2]diazepine-1-carboxamide] | 20 | 7 | 
11 | CC(C)[C@H](NC(=O)[C@@H]1CCCN2C(=O)CC[C@H](NC(=O)NC3CCCCC3)C(=O)N12)C(=O)CSc1nc2ccccc2s1 [Example 382, 9-[(9S)-[(cyclohexylamino)carbonyl]amino]-N-[(3S)-1-[(benzothiazol-2-yl)thio]-4-methyl-2-oxo-3-pentyl]-octahydro-6,10-dioxo-6H-(1S)-pyridazino[1,2-a][1,2]diazepine-1-carboxamide] | 20 | 9 | 
12 | CC(C)[C@H](NC(=O)[C@@H]1CCCN2C(=O)CC[C@H](NC(=O)Nc3ccc(Oc4ccccc4)cc3)C(=O)N12)C(=O)CSc1nnnn1-c1ccccc1 [Example 389, 9-[(9S)-[[(4-phenoxyphenyl)amino]carbonyl]amino]-N-[(3S)-1-[(1-phenyl-1H-tetrazol-5-yl)thio]-4-methyl-2-oxo-3-pentyl]-octahydro-6,10-dioxo-6H-(1S)-pyridazino [1,2-a][1,2]diazepine-1-carboxamide] | 20 | 6 | 
13 | CC(C)[C@H](NC(=O)[C@@H]1CCCN2C(=O)CC[C@H](NC(=O)NCCc3cccs3)C(=O)N12)C(=O)CSc1nnnn1-c1ccccc1 [Example 397, 9-[(9S)-[[[2-(thien-2-yl)-ethyl]amino]carbonyl]amino]-N-[(3S)-1-[(1-phenyl-1H-tetrazol-5-yl)thio]-4-methyl-2-oxo-3-pentyl]-octahydro-6,10-dioxo-6H-(1S)-pyridazino [1,2-a][1,2]diazepine-1-carboxamide] | 20 | 18 | 
14 | CC(C)[C@H](NC(=O)[C@@H]1CCCN2C(=O)CC[C@H](NC(=O)NCCc3cccs3)C(=O)N12)C(=O)CSc1nc2ccccc2s1 [Example 398, 9-[(9S)-[[[2-(thien-2-yl)-ethyl]amino]carbonyl]amino]-N-[(3S)-1-[(benzothiazol-2-yl)thio]-4-methyl-2-oxo-3-pentyl]-octahydro-6,10-dioxo-6H-(1S)-pyridazino[1,2-a][1,2]diazepine-1-carboxamide] |  | 9 | 
15 | C[C@H](NC(=O)[C@@H]1CCCN2C(=O)CC[C@H](NC(=O)Nc3ccc(Oc4ccccc4)cc3)C(=O)N12)C(=O)CSc1nc2ccccc2s1 [Example 450, 9-[(9S)-[[(4-phenoxyphenyl)amino]carbonyl]amino]-N-[(2S)-4-[(benzothiazol-2-yl)thio]-3-oxo-2-butyl]-octahydro-6,10-dioxo-6H-(1S)-pyridazino[1,2-a][1,2]diazepine-1-carboxamide] | 20 | 18 | 
